Experimental data: paper PMC11597202, “Novel Thiazole-Fused [4,5-g] or [5,4-g]Quinazolin-8-ones and Their Quinazoline Analogues: Synthesis and Biological Evaluation” (Pharmaceuticals, 2024)

Assays:
CK-1ε = molecular target: T1, CK-1ε (Homo sapiens, UniProt P49674); experiment: ADP-Glo kinase inhibition assay, CK-1ε; format: biochemical; conditions: percentage of maximum activity of the DMSO control, mean n = 2, 10 µM ATP, read-out: Residual activity CK-1ε; for remaining activity at 1 µM: 1 μM compound; for remaining activity at 10 µM: 10 μM compound
T1 construct: host or cells: Sf9 insect cells (baculovirus)
Method: (§1) Kinase enzymatic activities were assayed in 384-well plates using the ADP-Glo^TM assay kit (Promega, Madison, WI, USA) according to the recommendations of the manufacturer. This luminescent ADP detection assay was described by Zegzouti and co-workers and provides a homogeneous and high-throughput screening method to measure kinase activity by quantifying the amount of ADP produced during a kinase reaction. Briefly, the reactions were carried out in a final volume of 6 µL for 30 min at 30 °C in an appropriate kinase buffer (10 mM MgCl2, 1 mM EGTA, 1 mM DTT, 25 mM Tris-HCl pH 7.5, 50 µg/mL heparin), with peptide or protein as substrate in the presence of 10 µM ATP. Peptide substrates were obtained from ProteoGenix (Schiltigheim, France) or Sigma for Histone H1, Poly (L-glutamic acid–L-tyrosine) sodium salt, Casein and MBP. After that, 6 µL of ADP-Glo^TM Kinase Reagent was added to stop the kinase reaction. After an incubation time of 50 min at room temperature (rt), 12 µL of Kinase Detection Reagent was added for one hour at rt. The transmitted signal was measured using the Envision (PerkinElmer, Waltham, MA, USA) microplate luminometer and expressed as Relative Light Units (RLUs). Kinase activities are expressed as percentages of remaining kinase activities detected after treatment with 1 or 10 µM of the tested compounds. The maximum kinase activity was measured in the absence of inhibitor but with an equivalent dose of DMSO (solvent of the tested compounds).
(§2) 3. Kinase inhibition assays
(§3) Kinase enzymatic activities were assayed in 384-well plates using the ADP-GloTM assay kit (Promega, Madison, WI) according to the recommendations of the manufacturer. This luminescent ADP detection assay was described by Zegzouti and co-workers and provides a homogeneous and high-throughput screening method to measure kinase activity by quantifying the amount of ADP produced during a kinase reaction. Briefly, the reactions were carried out in a final volume of 6 µl for 30 min at 30°C in appropriate kinase buffer (10 mM MgCl2, 1 mM EGTA, 1 mM DTT, 25 mM Tris-HCl pH 7.5, 50 µg/mL heparin), with peptide or protein as substrate in the presence of 10 µM ATP. Peptide substrates were obtained from ProteoGenix (Schiltigheim, France) or Sigma for Histone H1, Poly (L-glutamic acid – L-tyrosine) sodium salt, Casein and MBP. After that, 6 µL of ADP-GloTM Kinase Reagent was added to stop the kinase reaction. After an incubation time of 50 min at room temperature (rt), 12 µL of Kinase Detection Reagent was added for 1 h at rt. The transmitted signal was measured using the Envision (PerkinElmer, Waltham, MA) microplate luminometer and expressed in Relative Light Unit (RLU). Kinase activities are expressed in percentages of remaining kinase activities detected after treatment with 1 or 10 µM of the tested compounds. The maximal kinase activity is measured in the absence of inhibitor but with an equivalent dose of DMSO (solvent of the tested compounds).
(§4) Table. Human protein kinases tested in the panel: CDK9, HASPIN, PIM1, GSK3b, CK1ε, JAK3, CLK1 […]
(§5) 1 Peptide substrates were obtained from ProteoGenix (Schiltigheim, France) or Sigma for Histone H1, Poly (L-glutamic acid – L-tyrosine) sodium salt, Casein and MBP; 2 “Sp” stands for phosphorylated serine.
(§6) Controls inhibitors: To validate each kinase assay, the following model inhibitors were used under the same conditions than the tested compounds: Staurosporine from Streptomyces sp.

CLK1 = molecular target: T2, CLK1 (Homo sapiens, UniProt P49759); experiment: ADP-Glo kinase inhibition assay, CLK1; format: biochemical; conditions: percentage of maximum activity of the DMSO control, mean n = 2, 10 µM ATP, read-out: Residual activity CLK1; for remaining activity at 1 µM: 1 μM compound; for remaining activity at 10 µM: 10 μM compound
T2 construct: host or cells: Sf9 insect cells (baculovirus)
Method: as §1, §2, §3, §4, §5, §6

[1] = In vitro cytotoxic assay, Huh7-D12; format: cell-based; conditions: human, Huh7-D12 cells (liver cancer cell line)
Method: (§7) Skin normal fibroblastic cells were purchased from Lonza (Basel, Switzerland). […] All culture media were supplemented by 10% of FBS, 1% of penicillin–streptomycin and 2 mM glutamine.
(§8) Chemicals were solubilized in DMSO at a concentration of 10 mM (stock solution) and diluted in culture medium to the desired final concentrations. […] Cells were plated in 96-well plates (4000 cells/well). Twenty-four hours after seeding, the cells were exposed to chemicals. […] Image acquisition and analysis were performed using a Cellomics ArrayScan VTI/HCS Reader (ThermoScientific, Les Ulis, France). The survival percentages were calculated as the percentage of cell number after compound treatment over cell number after DMSO treatment. The relative IC50 values were calculated using the curve fitting XLfit 5.5.0.5 (idbs) integrated in Microsoft Excel as an add-on.
(§9) 4.3.1. Cell culture. Skin normal fibroblastic cells are purchased from Lonza (Basel, Switzerland). Huh7- […]
(§10) from ATCC (American Type Culture Collection). […]
(§11) supplemented by 10% of FBS, 1% of penicillin-streptomycin and 2 mM glutamine.
(§12) 4.3.2. Cytotoxic assay. Chemicals were solubilized in DMSO at a concentration of 10 mM (stock solution) and diluted in culture medium to the desired final concentrations. The dose effect cytotoxic assays (IC50 determination) were performed by increasing the concentrations of each chemical (final well […]
(§13) Cells were plated in 96-well plates
(§14) (4000 cells/well). Twenty-four hours after seeding, cells were exposed to chemicals. After 48h of treatment, cells were washed in PBS and fixed in cooled 90% ethanol/5% acetic acid for 20 min and the […]
(§15) Image acquisition and analysis were performed using a Cellomics ArrayScan VTI/HCS Reader (ThermoScientific). The survival percentages were calculated as the percentage of cell number after compound treatment over cell number after DMSO treatment. The relative IC50 were calculated using the curve fitting XLfit 5.5.0.5 (idbs) integrated in Microsoft Excel as an add-on. The 4 Parameter Logistic Model or Sigmoidal Dose-Response Model describing the sigmoid-shaped response pattern was used (fit = (A+[(B-A)/(1+[(C/x)^D])]) where fit is the response and X is the tested concentration of the compound. The lower asymptote is A (also referred to as the bottom of the curve or lower plateau or the min) and the upper asymptote is B (also referred to as the top of the curve or upper plateau or the max). The slope of the linear part of the curve is described by the factor D. The parameter C is the concentration corresponding to the response midway between A and B. C is called “relative IC50” because it refers to the maximum response obtained by a […]
(§16) The results are represented as the mean ± standard error (SE) calculated from at least three independent experiments.

[2] = In vitro cytotoxic assay, HCT-116; format: cell-based; conditions: human, HCT-116 cells (colon cancer cell line)
Method: as §7, §8, §9, §10, §11, §12, §13, §14, §15, §16

[3] = In vitro cytotoxic assay, PC-3; format: cell-based; conditions: human, PC-3 cells (prostate cancer cell line); also: 0.1-25 µM tested
Method: as §7, §8, §9, §10, §11, §12, §13, §14, §15, §16

seven tumor cell lines = experiment: In vitro cytotoxic assay, whole panel of cancer cell lines; format: cell-based, human; conditions: 48 h; for IC50: Homo sapiens, lowest to highest IC50 among the seven cancer cell lines, read-out: IC50 span over the cancer cell lines
Method: as §7, §8, §9, §10, §11, §12, §13, §14, §15, §16

T1 sequence (P49674 whole entry): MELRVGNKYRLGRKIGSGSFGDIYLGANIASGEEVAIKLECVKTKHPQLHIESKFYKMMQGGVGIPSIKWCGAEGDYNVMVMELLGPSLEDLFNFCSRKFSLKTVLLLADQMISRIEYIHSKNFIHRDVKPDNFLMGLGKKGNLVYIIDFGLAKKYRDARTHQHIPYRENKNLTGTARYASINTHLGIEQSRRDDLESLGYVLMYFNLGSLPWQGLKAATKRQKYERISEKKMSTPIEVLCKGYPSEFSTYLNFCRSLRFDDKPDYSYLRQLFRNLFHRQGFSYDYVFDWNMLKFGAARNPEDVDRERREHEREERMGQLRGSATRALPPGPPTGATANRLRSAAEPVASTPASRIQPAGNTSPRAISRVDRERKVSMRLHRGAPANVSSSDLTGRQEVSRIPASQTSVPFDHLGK
T2 sequence (P49759 whole entry): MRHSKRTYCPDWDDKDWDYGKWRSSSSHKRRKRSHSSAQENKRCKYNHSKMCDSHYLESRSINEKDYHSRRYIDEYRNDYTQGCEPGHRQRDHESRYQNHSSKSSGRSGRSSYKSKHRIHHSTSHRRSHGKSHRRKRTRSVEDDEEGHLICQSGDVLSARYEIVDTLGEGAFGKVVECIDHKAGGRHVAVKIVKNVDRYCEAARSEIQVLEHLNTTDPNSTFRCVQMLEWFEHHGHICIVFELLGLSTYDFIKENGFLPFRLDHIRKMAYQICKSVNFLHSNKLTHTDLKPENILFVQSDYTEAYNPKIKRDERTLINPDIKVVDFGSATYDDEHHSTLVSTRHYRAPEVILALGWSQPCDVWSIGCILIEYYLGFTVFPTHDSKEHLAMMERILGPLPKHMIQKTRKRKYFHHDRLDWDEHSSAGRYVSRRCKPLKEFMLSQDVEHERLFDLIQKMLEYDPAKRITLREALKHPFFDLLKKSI

Row | SMILES | remaining activity at 1 µM (CK-1ε) [%] | remaining activity at 10 µM (CK-1ε) [%] | remaining activity at 1 µM (CLK1) [%] | remaining activity at 10 µM (CLK1) [%] | IC50 at 48 h [1] [µM] | IC50 at 48 h [2] [µM] | IC50 at 48 h [3] [µM] | IC50 (seven tumor cell lines) [µM] | melting point [°C] | Cytotoxicity over the cell lines studied (in words) (seven tumor cell lines; 0.1-25 μM)
1 | COC(=N)c1nc2cc3c(=O)n(Cc4ccccc4)cnc3cc2s1 [Compound 6a, Methyl 7-benzyl-8-oxo-7,8-dihydrothiazolo[4,5-g]quinazoline-2-carbimidate] | 100 | 69 | 97 | 96 | > 25 | 20 | 20 | 17 to 27 | 213 to 214 | –
2 | COC(=N)c1nc2cc3ncn(Cc4ccccc4)c(=O)c3cc2s1 [Compound 6b, Methyl 7-benzyl-8-oxo-7,8-dihydrothiazolo[5,4-g]quinazoline-2-carbimidate] | 111 | 103 | 100 | 102 | 1 | 1 | 2 | 1 to 3 | 244 to 245 | –
3 | COC(=N)c1nc2c(ccc3c(=O)n(Cc4ccccc4)cnc32)s1 [Compound 6c, Methyl 7-benzyl-6-oxo-6,7-dihydrothiazolo[5,4-h]quinazoline-2-carbimidate] | 112 | 87 | 95 | 84 | 10 | 3 | 8 | 3 to 13 | 213 to 214 | –
4 | COC(=N)c1nc2ccc3c(=O)n(Cc4ccccc4)cnc3c2s1 [Compound 6d, Methyl 7-benzyl-6-oxo-6,7-dihydrothiazolo[4,5-h]quinazoline-2-carbimidate] | 92 | 98 | 89 | 73 | 9 | 2 | 10 | 2 to 11 | 205 to 206 | –
5 | COC(=N)c1nc2cc3c(Nc4ccc(OC)cc4F)ncnc3cc2s1 [Compound 15a, Methyl 8-[(2-fluoro-4-methoxyphenyl)amino]thiazolo[4,5-g]quinazoline-2-carbimidate] | 95 | 72 | 89 | 52 | 8 | 8 | – | – | 246 to 247 | –
6 | COC(=N)c1nc2cc3ncnc(Nc4ccc(OC)cc4F)c3cc2s1 [Compound 15b, Methyl 8-[(2-fluoro-4-methoxyphenyl)amino]thiazolo[5,4-g]quinazoline-2-carbimidate] | 98 | 108 | 102 | 105 | – | – | – | – | 239 to 240 | did not show detectable cytotoxicity
7 | COC(=N)c1nc2ccc3ncn(Cc4ccccc4)c(=O)c3c2s1 [Compound I, methyl 8-benzyl-9-oxo-8,9-dihydrothiazolo[5,4-f]quinazoline-2-carbimidate, reference compound] | 92 | 70 | 75 | 27 | 15 | 18 | 20 | – | – | –
8 | COC(=N)c1nc2ccc3ncnc(Nc4ccc(OC)cc4F)c3c2s1 [Compound II, methyl 9-[(2-fluoro-4-methoxyphenyl)amino]thiazolo[5,4-f]quinazoline-2-carbimidate, reference compound] | – | – | – | – | 5 | 4 | 4 | – | – | –
